# Laboratory results taken from patent US20250041461A1, “[177LU] LUTETIUM-PSMA I&T COMPOSITION AND DOSIMETRY, KIT, METHOD OF MAKING, AND METHOD OF USING THEREOF” (Curium US LLC, priority 2023, published 2025).
# Several values for one entry are separate records, joined by “and”; a condition that tells them apart may be missing. Equal entries are not always repeated.
# Legend:
# [1] = Plasma PK modelling (gamma counting, bi-exponential fit), cycles 1 and 3; assay type: in vivo, human
# Description: PK plasma samples were collected at pre-Infusion, 1 h, 4 h, 24 h, 48 h, and 168 h, and counted for radioactivity. Blood samples were first centrifuged to extract plasma, and then the radioactivity in plasma was counted in a gamma counter.
# Whole blood samples were collected as detailed in the protocol Schedule of Events i.e. pre-injection, and then at 1 h, 4 h, 24 h, 48 h, and 168 h post-injection. The samples were first centrifuged to separate plasma, and the radioactivity in the plasma was then measured using a gamma counter. Plasma concentrations were subsequently fitted with a bi-exponential function to derive outcome parameters such as the half-life and clearance rate of the radiopharmaceutical in the plasma.
# Gamma-counted plasma samples were quality controlled using the same ^177Lu reference standard by measuring 0.5 ml of the 100 mL in the saline bag. For each patient, triplicates were made and measured right before all plasma samples were counted. A long-lived isotope was also counted to ensure that the protocol was properly followed by each site. Similarly to the imaging standard, when the gamma counter efficiency factor differed by more than 10% compared to that at site set-up, an investigation was launched to determine the cause of this variation, and if it reflected a difference in data acquisition.
# Plasma data was fitted with a bi-exponential curve.
# Blood samples were obtained for 15 out of 16 patients at cycle 3. Patients 12-004 had blood taken only at the 24 h timepoint and, therefore, was not included in the plasma PK analysis. Consistent with Cycle 1, the time-course of plasma concentrations was similar among the patients. The ranges of PK parameters obtained at cycle 3 were similar to those from Cycle 1 data (Table 6). Cycle 3 PK plasma modeling results (n=15)
# [2] = Example 10 dosimetry, 27 mCRPC patients, planar whole-body conjugate imaging and SPECT/CT, MIRD method; assay type: in vivo, human
# Description: Radiation dosimetry of [^177Lu]Lu-PSMA-I&T was calculated in 27 patients with mCRPC based on biodistribution data from planar whole-body conjugate imaging at 1, 24, 48, 72, and 168 hours and, for 7 of them, SPECT/CT imaging at 48-72 hours post injection of their first cycle of [^177Lu]Lu-PSMA-I&T (6.8±10% GBq).
# Regions of interest were drawn on the planar images.
# Volumes of interest were constructed on the SPECT and CT
# For each subject, kinetic data were modeled to determine
# normalized number of disintegrations in organs and tissues, from which the absorbed dose estimates were computed using the MIRD method.
# [3] = Cycle 1, patient 42-030 excluded
# [4] = 27 patients, first cycle, 6.8 GBq, planar imaging
# [5] = Bladder Wall, 27 patients, first cycle
# [6] = Heart Wall, 27 patients, first cycle
# [7] = Kidneys, 27 patients, first cycle
# [8] = Lacrimal Glands, 27 patients, first cycle
# [9] = Left Colon, 27 patients, first cycle
# [10] = Liver, 27 patients, first cycle
# [11] = Red Marrow, 27 patients, first cycle
# [12] = Salivary Glands, 27 patients, first cycle
# [13] = Spleen, 27 patients, first cycle
# [14] = Thyroid, 27 patients, first cycle
# [15] = cumulative administered activity of 27.2 GBq, four cycles of 6.8 GBq
structure (smiles),measurement,setting,value
"O=C([O-])CC[C@H](NC(=O)N[C@@H](CCCCNC(=O)CCCCCCC(=O)NCCCC[C@@H](NC(=O)[C@@H](Cc1ccccc1)NC(=O)[C@@H](Cc1ccc(O)c(I)c1)NC(=O)CC[C@H](C(=O)[O-])N1CCN(CC(=O)[O-])CCN(CC(=O)[O-])CCN(CC(=O)[O-])CC1)C(=O)[O-])C(=O)[O-])C(=O)[O-].[177Lu+3].[H+].[H+].[H+].[H+].[H+] [^177Lu-PSMA I&T, (3S,7S,26R,29R,32R,37R)-29-benzyl-32-(4-hydroxy-3-iodobenzyl)-5,13,20,28,31,34-hexaoxo-37-(4,7,10-tris(carboxymethyl)-1,4,7,10-tetraazacyclododecan-1-yl)-4,6,12,21,27,30,33-heptaazaheptatriacontane-1,3,7,26,37-pentacarboxylic acid; lutetium-177 (III)]",Peak Concentration Value,"[1]; Cycle 1, individual patients",0.05 fIA/L (4×) and 0.04 fIA/L and 0.03 fIA/L
same,Time of Peak Concentration,"[1]; Cycle 1, individual patients, time of first post-administration sample",56.00 min and 47.00 min and 53.00 min and 60.00 min (6×) and 51.00 min (2×) and 58.00 min and 61.00 min (2×) and 50.00 min and 63.00 min and 57.00 min and 55.00 min and 52.00 min (2×) and 68.00 min and 71.00 min and 65.00 min and 33.00 min and 40.00 min and 69.00 min
same,"AUC Total, Mean",[1]; [3],22.77 fIA/L × min
same,"AUC Total, max",[1]; [3],37.86 fIA/L × min
same,"AUC Total, median",[1]; [3],20.84 fIA/L × min
same,"AUC Total, min",[1]; [3],3.07 fIA/L × min
same,"Peak Concentration Value, Mean",[1]; [3],0.04 fIA/L
same,"Peak Concentration Value, max",[1]; [3],0.07 fIA/L
same,"Peak Concentration Value, median",[1]; [3],0.04 fIA/L
same,"Peak Concentration Value, min",[1]; [3],0.01 fIA/L
same,Time of Peak Concentration,[1]; [3],33.00 min
same,"Time of Peak Concentration, median",[1]; [3],59.00 min
same,"Vd, Mean",[1]; [3],234.64 L
same,"Vd, max",[1]; [3],1365.03 L
same,"Vd, median",[1]; [3],157.12 L
same,"Vd, min",[1]; [3],54.60 L
same,Time of Peak Concentration,"[1]; cycle 3, max (n=15)",68.00 min
same,Time of Peak Concentration,"[1]; cycle 3, median (n=15)",60.00 min
same,Time of Peak Concentration,"[1]; cycle 3, min (n=15)",55.00 min
same,"absorbed dose, kidneys",[2]; [4],0.73 Gy/GBq
same,"absorbed dose, lacrimal glands",[2]; [4],1.2 Gy/GBq
same,"average dose, red marrow",[2]; [4],0.034 Gy/GBq
same,"average dose, salivary glands",[2]; [4],0.34 Gy/GBq
same,"dose estimate, Max",[2]; [5],0.36 mGy/MBq or Gy/GBq
same,"dose estimate, Mean",[2]; [5],0.33 mGy/MBq or Gy/GBq
same,"dose estimate, Min",[2]; [5],0.14 mGy/MBq or Gy/GBq
same,"Absorbed Dose, Mean","[2]; Bladder, SPLASH",0.33 Gy/GBq
same,"Absorbed Dose, Mean","[2]; Bone Marrow, SPLASH",0.034 Gy/GBq
same,"dose estimate, Max",[2]; [6],0.15 mGy/MBq or Gy/GBq
same,"dose estimate, Mean",[2]; [6],0.036 mGy/MBq or Gy/GBq
same,"dose estimate, Min",[2]; [6],0.017 mGy/MBq or Gy/GBq
same,"dose estimate, Mean","[2]; Heart Wall, Splash",0.04 Gy/GBq
same,"Absorbed Dose, Mean","[2]; Heart, SPLASH",0.036 Gy/GBq
same,"dose estimate, Max",[2]; [7],1.8 mGy/MBq or Gy/GBq
same,"dose estimate, Mean",[2]; [7],0.73 mGy/MBq or Gy/GBq
same,"dose estimate, Min",[2]; [7],0.22 mGy/MBq or Gy/GBq
same,"Absorbed Dose, Mean","[2]; Kidneys, Splash",0.73 Gy/GBq
same,"dose estimate, Mean","[2]; Kidneys, Splash",0.73 Gy/GBq
same,"dose estimate, Max",[2]; [8],6.7 mGy/MBq or Gy/GBq
same,"dose estimate, Mean",[2]; [8],1.2 mGy/MBq or Gy/GBq
same,"dose estimate, Min",[2]; [8],0.38 mGy/MBq or Gy/GBq
same,"Absorbed Dose, Mean","[2]; Lacrimal Glands, SPLASH",1.2 Gy/GBq
same,"dose estimate, Mean","[2]; Lacrimal gland, Splash",1.20 Gy/GBq
same,"dose estimate, Max",[2]; [9],1.5 mGy/MBq or Gy/GBq
same,"dose estimate, Mean",[2]; [9],0.52 mGy/MBq or Gy/GBq
same,"dose estimate, Min",[2]; [9],0.013 mGy/MBq or Gy/GBq
same,"Absorbed Dose, Mean","[2]; Left colon, Splash",0.52 Gy/GBq
same,"dose estimate, Mean","[2]; Left colon, Splash",0.52 Gy/GBq
same,"dose estimate, Max",[2]; [10],0.24 mGy/MBq or Gy/GBq
same,"dose estimate, Mean",[2]; [10],0.051 mGy/MBq or Gy/GBq
same,"dose estimate, Min",[2]; [10],0.025 mGy/MBq or Gy/GBq
same,"Absorbed Dose, Mean","[2]; Liver, Splash",0.051 Gy/GBq
same,"dose estimate, Mean","[2]; Liver, Splash",0.051 Gy/GBq
same,"dose estimate, Max",[2]; [11],0.11 mGy/MBq or Gy/GBq
same,"dose estimate, Mean",[2]; [11],0.034 mGy/MBq or Gy/GBq
same,"dose estimate, Min",[2]; [11],0.014 mGy/MBq or Gy/GBq
same,"dose estimate, Mean","[2]; Red Marrow, Splash",0.03 Gy/GBq
same,"dose estimate, Max",[2]; [12],1.5 mGy/MBq or Gy/GBq
same,"dose estimate, Mean",[2]; [12],0.34 mGy/MBq or Gy/GBq
same,"dose estimate, Min",[2]; [12],0.14 mGy/MBq or Gy/GBq
same,"Absorbed Dose, Mean","[2]; Salivary glands, Splash",0.34 Gy/GBq
same,"dose estimate, Mean","[2]; Salivary glands, Splash",0.34 Gy/GBq
same,"dose estimate, Max",[2]; [13],0.80 mGy/MBq or Gy/GBq
same,"dose estimate, Mean",[2]; [13],0.16 mGy/MBq or Gy/GBq
same,"dose estimate, Min",[2]; [13],0.022 mGy/MBq or Gy/GBq
same,"Absorbed Dose, Mean","[2]; Spleen, Splash",0.16 Gy/GBq
same,"dose estimate, Mean","[2]; Spleen, Splash",0.16 Gy/GBq
same,"dose estimate, Max",[2]; [14],0.77 mGy/MBq or Gy/GBq
same,"dose estimate, Mean",[2]; [14],0.17 mGy/MBq or Gy/GBq
same,"dose estimate, Min",[2]; [14],0.011 mGy/MBq or Gy/GBq
same,"Absorbed Dose, Mean","[2]; Thyroid, Splash",0.17 Gy/GBq
same,"dose estimate, Mean","[2]; Thyroid, Splash",0.17 Gy/GBq
same,"dose estimate, Mean","[2]; Urinary bladder wall, Splash",0.33 Gy/GBq
same,"cumulative absorbed dose, kidneys",[2]; [15],19.9 Gy
same,"cumulative absorbed dose, red marrow",[2]; [15],0.91 Gy
